The record followed here is patent EP4129284B1, “SERTACONAZOL FOR PROVIDING A SPORISTATIC AND/OR SPORICIDAL EFFECT” (Dr. Pfleger Arzneimittel GmbH, priority 2021, dated 2023).

For this series, the system named is full skin models. Format: cell-based, human. As to the method:
Additionally, the influence on the cell viability and the release of lactate dehydrogenase (LDH) was examined over the incubation time. Disruptions of the cell membranes can be measured by the release of the cytosolic enzyme LDH and be evaluated as a marker for cellular necrosis. As the biocompatibility of the material is determined by further cellular and molecular factors, the analysis of the cellular interleukin release allows the conclusion on e.g. pro-inflammatory effects of the substances, which would not be possible to be detected by sole cytotoxicity. Such interleukins are interleukins 1α, 6 or 8, which are involved in coordinating the cellular proliferation, cell migration and possible inflammatory processes. Such a method is described in, for example, Wiegand C, Hipler UC. Evaluation of biocompatibility and cytotoxicity using keratinocyte and fibroblast cultures. Skin Pharmacol Physiol 2009; 22:74-82; Wiegand C, Winter D, Hipler UC. Molecular-weight-dependent toxic effects of chitosans on the human keratinocyte cell line HaCaT. Skin Pharmacol Physiol. 2010;23(3):164-70.
The spore suspensions and the solutions of sertaconazol, ciclopiroxolamin and terbinafin were prepared as in Example 1, wherein the respective test concentrations were obtained by diluting these solutions in ultrapure water (WFI; Fresenius Kabi) instead of SGB (Merck). Full skin models were produced as previously described [Reddersen K, Wiegand C, Elsner P, Hipler UC. Three-dimensional human skin model infected with Staphylococcus aureus as a tool for evaluation of bioactivity and biocompatibility of antiseptics. Int J Antimicrob Agents. 2019; 54(3):283-291; Wiegand C, Fink S, Beier O, Horn K, Pfuch A, Schimanski A, Grünler B, Hipler UC, Elsner P. Dose- and Time-Dependent Cellular Effects of Cold Atmospheric Pressure Plasma Evaluated in 3D Skin Models. Skin Pharmacol Physiol. 2016;29(5):257-265].Particularly, normal human dermal fibroblasts (NHDF; Lot 1060702.1, Promocell) and normal human epidermal keratinocytes (NHEK; Lot 9100102, Promocell) were used. Fibroblasts were cultivated in Dulbecco's modified eagle medium (DMEM; Lot MC09049P, Amimed), with 2% foetal calf serum (Lot P160509; PAN), 5 ng/mL hFGF (Lot 0329586; novoprotein) and 5 µg/ml Insulin (Lot H07443P, AMIMED) at 37°C and a 5% CO2 atmosphere. Keratinocytes were cultivated in keratinocyte medium (KBM, Lot 446M063, Promocell) at 37°C and a 5% CO2 atmosphere. The cultivation was performed over 7 days in 75 cm^2 cell culture flasks (Greiner Bio-One). The cells were subsequently detached with Trypsin-EDTA (Lot 2091326; Gibco) and dissolved in the respective medium. For producing the dermis equivalent, fibroblasts were cultivated in 12-well inserts (Greiner bio-one) with DMEM (Lot MC09049P, Amimed) + 10% foetal calf serum (Lot P160509, PAN) + 1% Gentamycin (Lot 2027100, Gibco) + 150 µg/ml ascorbic acid (Lot BCBS1081V, Sigma) for 3 weeks at […] and 5 % CO2. The medium was changed all 2-3 days. Before seeding the keratinocytes for producing the […], the medium surrounding the insert was completely removed and the dermis upper layer was coated with fibronectin (50 µg/mL; Lot 435P078, Promocell). After 30 min of incubation of the dermis equivalent with fibronectin, the seeding of the keratinocytes was performed with 2 × 10^5 cells / insert in KBM (Lot 446M063, Promocell) + 5% FKS (Lot P160509, PAN) + 1% Gentamycin (Lot 2027100, Gibco). Subsequently, the skin models were incubated for 45 min in the incubator before the models were flooded with KBM + 5% FKS + 1% Gentamycin. The skin models were cultivated for 7 days by submersion in the medium with decreasing foetal calf serum concentration (5 %, 2 %, 0 %). The medium was changed all 2-3 days. After the cultivation by submersion, the skin models were further cultivated for 12 days at the air-medium interface (airlift cultivation). […]

As to `CCCCCCCCCCCCOS(=O)(=O)[O-].[Na+]` [SDS], the cell viability entry was “approximately 20%”.
